# Where two headings read alike, the source gives them in different places.
# What was measured:
# IGF-II receptor = conditions: chronic ethanol feeding
# Source text: (§1) Male (˜200 g) Long Evans rats (Charles River Laboratories, Cambridge, Mass.) were fed isocaloric liquid diets (BioServ, Frenchtown, N.J.) in which ethanol comprised 0% or 37% of the caloric content (9.25% v/v) for 6 weeks (Yeon et al., Hepatology 38:703 (2003)). A chow fed control group was also studied. Rats were monitored daily to ensure equivalent food consumption and maintenance of body weight. Upon sacrifice, the brains were harvested and either immersion fixed in Histochoice fixative (Amresco Corp., Solon, Ohio) for paraffin embedding, or sliced fresh to micro-dissect temporal cortex, hypothalamus, and cerebellum. The fresh tissue blocks were snap frozen in a dry ice-methanol bath and stored at −80° C. for mRNA and protein studies.
# (§2) Fresh frozen tissue (˜100 mg) was homogenized in 5 volumes of NP-40 lysis buffer (50 mM Tris-HCl, pH 7.5, 1% NP-40, 150 mM NaCl, 1 mM EDTA, 2 mM EGTA) containing protease inhibitors (1 mM PMSF, 0.1 mM TPCK, 1 μg/ml aprotinin, 1 μg/ml pepstatin A, 0.5 μg/ml leupeptin, 1 mM NaF, 1 mM Na4P2O7). Protein concentrations were determined using the bicinchoninic acid (BCA) assay (Pierce, Rockford, Ill.). Exploratory studies determined the amounts of protein and concentrations of radiolabeled ligand required to achieve 20% specific binding. Insulin receptor binding assays were performed using 100 μg protein. IGF-I binding assays required 25 μg protein per sample, and IGF-II receptor binding assays were optimized using 10 μg protein. Competitive equilibrium binding assays were used to assess growth factor binding in relation to ethanol exposure. For total binding, duplicate individual protein samples were incubated in 100 μl reactions containing binding buffer (100 mM HEPES, pH 8.0, 118 mM NaCl, 1.2 mM MgSO4, 8.8 mM dextrose, 5 mM KCl, 1% bovine serum albumin) and 100 nCi/ml of [^125I] (2000 Ci/mmol; […]) insulin, IGF-I, or IGF-II. To measure non-specific binding, replicate samples were identically prepared but with the addition of 0.1 μM unlabeled (cold) ligand.
# (§3) All reactions were performed in 1.5 ml Eppendorff tubes, and the incubations were performed at 4° C. for 16 hours with gentle platform agitation. Bound radiolabeled tracer was then precipitated by adding 500 μl of 0.15% bovine gamma globulin (prepared in 100 mM Tris-HCl, pH 8.0) followed by 400 μl 37.5% polyethylene glycol 8000 (PEG-8000; prepared in 100 mM Tris-HCl, pH 8.0) to each tube. […] The samples were counted for 1 minute in an LKB CompuGamma CS Gamma counter. Specific binding was calculated by subtracting fmol of non-specific binding, i.e., amount bound in the presence of cold ligand, from the total fmol bound (absence of unlabeled competitive ligand). The results were analyzed and plotted using the GraphPad Prism 4 software (GraphPad Software, Inc., San Diego, Calif.). […]
# IGF-I receptor = conditions: chronic ethanol feeding; temporal lobe, hypothalamus, and cerebellum
# Source text: as §1, §2, §3
# insulin receptor = conditions: chronic ethanol feeding; temporal lobe, hypothalamus, and cerebellum
# Source text: as §1, §2, §3
# cerebellar ATP content = conditions: rat, in vivo
# Description: Studies were done to characterize the degree to which ethanol-associated impairments in receptor binding were associated with reductions in insulin and IGF-I receptor tyrosine kinase activities, and insulin and IGF-I receptor protein expression. Receptor protein levels were measured by Western blotting with digital image densitometry.
# IGF-II receptors = conditions: pup cerebellar membrane extracts, chronic gestational ethanol exposure relative to control; not dose-dependent
# Description: Fresh frozen tissue (˜100 mg) was homogenized in 5 volumes of NP-40 lysis buffer (50 mM Tris-HCl, pH 7.5, 1% NP-40, 150 mM NaCl, 1 mM EDTA, 2 mM EGTA) containing protease inhibitors (1 mM PMSF, 0.1 mM TPCK, 1 μg/ml aprotinin, 1 μg/ml pepstatin A, 0.5 μg/ml leupeptin, 1 mM NaF, 1 mM Na4P2O7). Protein concentrations were determined using the bicinchoninic acid (BCA) assay (Pierce, Rockford, Ill.). Exploratory studies determined the amounts of protein and concentrations of radiolabeled ligand required to achieve 20% specific binding. Insulin receptor binding assays were performed using 100 μg protein. IGF-I binding assays required 25 μg protein per sample, and IGF-II receptor binding assays were optimized using 10 μg protein. […]
# All reactions were performed in 1.5 ml Eppendorff tubes, and the incubations were performed at 4° C. for 16 hours with gentle platform agitation. […] The samples were counted for 1 minute in an LKB CompuGamma CS Gamma counter. Specific binding was calculated by subtracting fmol of non-specific binding, i.e., amount bound in the presence of cold ligand, from the total fmol bound (absence of unlabeled competitive ligand). The results were analyzed and plotted using the GraphPad Prism 4 software (GraphPad Software, Inc., San Diego, Calif.).
# ChAT mRNA = conditions: chronic ethanol feeding; hypothalamus and cerebellum
# Source text: as §1
# (§4) Total RNA was isolated from brain tissue using TRIzol reagent (Invitrogen, Carlsbad, Calif.) according to the manufacturer's protocol. RNA concentrations and purity were determined from the absorbances measured at 260 nm and 280 nm. […] Real time quantitative RT-PCR was used to measure mRNA levels of insulin, IGF-I, and IGF-II growth factors, their corresponding receptors, neuronal (Hu), astrocytic (glial fibrillary acidic protein; GFAP), oligodendroglial (myelin-associated glycoprotein-1; MAG-1), microglial (AIF1), and endothelial (endothelin-1; ET-1) cell genes, acetyl cholinesterase (AChE), and choline acetyltransferase (ChAT). […]
# AChE mRNA = conditions: chronic ethanol feeding; temporal lobe, hypothalamus, cerebellum
# Source text: as §1, §4
compound,measurement,setting,value
CCO [ethanol],IGF-II receptor binding,"IGF-II receptor; cerebella, relative to control rats",significantly lower
same,IGF-II receptor binding,IGF-II receptor; temporal lobe and hypothalamus,relatively preserved
same,IGF-I receptor binding,IGF-I receptor,significantly reduced
same,insulin receptor binding,insulin receptor,significantly reduced
same,cerebellar ATP content,cerebellar ATP content,dose-dependent progressive reductions
same,impairment of IGF-II receptor binding,IGF-II receptors,~50%
same,ChAT mRNA expression,ChAT mRNA,significantly reduced
same,expression of AChE,AChE mRNA,did not significantly alter

# Source: patent US9308198B2, “Treatment, prevention, and reversal of alcohol-induced brain disease” (priority 2006, dated 2016)
